This is an account of results in US20240252454A1, “COMPOSITION COMPRISING AN INHIBITOR OF MITOCHONDRIAL TRANSCRIPTION” (LEAD DISCOVERY CENTER GMBH, priority 2021, published 2024).

What all share (format): cell-based
Assay [1] concerns HEC59. In words: CellTiter-GLO (CTG) assay, combinatorial matrix. As to conditions: HEC59, 72 hours, IMT at the μM of c0, untreated control =100%, read-out: Measured residual activity (cellular ATP content). As to the method:
(§1) To determine the in vitro cellular viability, cellular ATP concentrations were measured using a luminescence-based homogenous assay format, as described here. […] Optimal cell density for each cell line was determined to guarantee linearity. For viability assays with compounds, cells were then seeded at a density of 200 to 1000 per well in 25 μl in 384-well plates (Greiner Bio-One, Frickenhausen, Germany). After overnight incubation at 37° C./5% CO2, 25 nl or 75 nl compounds were added to each sample well by using BIOMEK FXP Laboratory Automation Workstation (Beckman Coulter, USA). Wells with cells and 0.1% or 0.3% DMSO in culture medium were used as positive controls, wells with cells and 10 μM staurosporine (Selleck Chemicals, Huston, USA) in culture medium were used as negative controls. Upon incubation with compounds for 72 h at 37° C./5% CO2 25 μl Cell Titer Glo reagent (Promega, Madison, USA, European Pat. No. 1131441, U.S. Pat. Nos. 7,083,911, 7,452,663 and 7,732,128) 1:2 diluted with cell culture medium) was added to each well to determine cell viability. 384well-plates were placed for 2 min on an orbital microplate shaker and incubated for further 10 min at room temperature resulting in a stabilization of light signal. Luminescence was measured by Envision Plate Reader (Perkin Elmer, USA).
(§2) All in vitro cell culture experiments were carried out under near physiological glucose concentrations (5 mM) in at least two independent replicates.
(§3) To establish the method described, N,N-dimethyl-2-[4-(o-tolyl)-2-oxo-chromen-7-yl]oxy-propanamide, (3S)-1-[2-[4-(2-chloro-4-fluoro-phenyl)-2-oxo-chromen-7-yl]oxypropanoyl]piperidine-3-carboxylic acid, (3S)-1-[(2R)-2-[4-(2-chloro-4-fluoro-phenyl)-2-oxo-chromen-7-yl]oxypropanoyl]piperidine-3-carboxylic acid and BAY-876 were first examined with regard to their effect on the cell growth of twelve different tumour cell lines and the IC50 values were determined. This initial study was followed by validation experiments in a matrix format and in the CTG assay, as described under Example 1), in two tumour cell lines from uterine and ovarian carcinoma (HEC59 and A2780), as well as in primary human blood cells (PBMC) (Table 7).
(§4) Combinations of one concentration of IMT (μM; y-axis) and 30 μM-33 nM BAY-876 (x-axis) were incubated for 72 hours with HEC59, hPBMCs or A2780 and then the cellular ATP-content was determined using the CellTiter-GLO assay format. A: Measured residual activity (%) based on an untreated control group (=100%). B: The combinatorial indices are provided, based on the reference groups treated with the corresponding concentration of only one inhibitor class, according to Berenbaum and Cou & Talalay. <1=synergism, 1-2=additivity, 2>=antagonism.

Assay [2] has as its system primary human blood cells (PBMC). Put plainly: CellTiter-GLO (CTG) assay, combinatorial matrix. As to conditions: Homo sapiens, PBMC, hPBMCs, 72 hours, IMT at the μM of c0, untreated control =100%, read-out: Measured residual activity (cellular ATP content). As to the method: as §1, §2, §3, §4
(Cellular ATP, detected with luciferase, serves as a proxy for viable cell number.)

The test system of assay [3] is A2780. In words: CellTiter-GLO (CTG) assay, combinatorial matrix. The procedure: as §1, §2
Assay [4] deals with HEC59. In words: CellTiter-GLO (CTG) assay, combinatorial matrix. The following applies: 30 μM to 15 nM IMT + 30 μM to 40 nM BAY-876.
The test system of assay [5] is A2780. In words: SRB assay, IMT combined with inhibitor. The following applies: A2780; dilution series of the IMT + MEK inhibitor Selumetinib (AZD6244) at constant 1 μM or 31 nM; compared to untreated or MEK inhibitor only (FIG. 1). As to the method: In two studies, the ovarian cell line A2780 was tested for 72 hours with the IMT N,N-dimethyl-2-[4-(o-tolyl)-2-oxo-chromen-7-yl]oxy-propanamide (30 μM-15 nM) and the MEK inhibitor Selumetinib (30 μM-10 nM), or with the IMT 1-[2-[4-(2-chlorophenyl)-2-oxo-chromen-7-yl]oxypropanoyl]piperidine-3-sulfonamide (30 μM-15 nM) and the MEK inhibitor PD318088 (30 μM-10 nM).
Solforhodamine B assay is carried out as described in Voigt W. (2005) Sulforhodamine B Assay and Chemosensitivity. (Methods in Molecular Medicine™, vol 110. Humana Press. https://doi.org/10.1385/1-59259-869-2:039).
The determination of changes in cellular biomass was based on the Solforhodamine B assay format, carried out as described in Voigt W. (2005) Sulforhodamine B Assay and Chemosensitivity. (Methods in Molecular Medicine™, vol 110. Humana Press. https://doi.org/10.1385/1-59259-869-2:039).
as §2
First, 30 different cell lines from 14 different tissue types were tested in the SRB assay format. The cells were examined individually for changes in growth over a period of 120 hours with dilution series of both inhibitors. Untreated cells were used as a negative control group. Subsequently, a dilution series of the respective MAPK signalling pathway SOCs was treated in combination with a fixed concentration of 40 nM (3S)-1-[(2R)-2-[4-(2-chloro-4-fluoro-phenyl)-2-oxo-chromen-7-yl]oxypropanoyl]piperidine-3-carboxylic acid.
(In SRB staining, fixed cells bind dye roughly in proportion to their protein.)

Where two headings read alike, the source gives them in different places.

Consider `Cc1c(NC(=O)c2cc(C(N)=O)nc3cc(F)ccc23)c(C(F)(F)F)nn1Cc1ccc(C#N)cc1` [BAY-876], for which the activity at 0.041 µM in assay [1] (BAY-876 0.041 μM) is 74%. Moreover, the activity at 0.123 µM in assay [1] (BAY-876 0.123 μM) was 59%; in assay [3] (Homo sapiens, A2780, 72 hours, BAY-876 0.123 μM, IMT at the μM of c0, untreated control =100%, read-out: Measured residual activity (cellular ATP content)), 78%. For the same compound, the activity at […] turned out to be 58% in assay [1] (BAY-876 0.370 μM); 18% in assay [1] (BAY-876 3.3 μM); 109% in assay [2] (BAY-876 0.12 μM); 90% in assay [2] (BAY-876 0.37 μM); 90% in assay [3] (Homo sapiens, A2780, 72 hours, BAY-876 0.37 μM, IMT at the μM of c0, untreated control =100%, read-out: Measured residual activity (cellular ATP content)). Further, the activity at 1.111 µM in assay [1] (BAY-876 1.111 μM) is 32%. Besides, the activity at 10 µM in assay [1] (BAY-876 10 μM) was 11%; in assay [2] (BAY-876 10 μM) it was 87%; in assay [3] (Homo sapiens, A2780, 72 hours, BAY-876 10 μM, IMT at the μM of c0, untreated control =100%, read-out: Measured residual activity (cellular ATP content)), 51%. Moreover, the activity at 30 µM was determined as 8% in assay [1] (BAY-876 30 μM); 101% in assay [2] (BAY-876 30 μM); 10% in assay [3] (Homo sapiens, A2780, 72 hours, BAY-876 30 μM, IMT at the μM of c0, untreated control =100%, read-out: Measured residual activity (cellular ATP content)). The activity at 0.04 µM turned out to be 104% in assay [2] (BAY-876 0.04 μM) and 88% in assay [3] (Homo sapiens, A2780, 72 hours, BAY-876 0.04 μM, IMT at the μM of c0, untreated control =100%, read-out: Measured residual activity (cellular ATP content)). Further, the activity at 3.33 µM was 98% in assay [2] (BAY-876 3.33 μM) and 78% in assay [3] (Homo sapiens, A2780, 72 hours, BAY-876 3.33 μM, IMT at the μM of c0, untreated control =100%, read-out: Measured residual activity (cellular ATP content)).
`CC(Oc1ccc2c(-c3ccc(F)cc3Cl)cc(=O)oc2c1)C(=O)N1CCC[C@H](C(=O)O)C1` (stereo partly drawn) [(3S)-1-[2-[4-(2-chloro-4-fluoro-phenyl)-2-oxo-chromen-7-yl]oxypropanoyl]piperidine-3-carboxylic acid]: the “combination of IMT and GLUTi compared to treatment with only the GLUTi BAY-876 alone” value is listed as “advantage of the combination” in assay [3] (A2780, CTG matrix, 30 μM to 15 nM IMT + 30 μM to 40 nM BAY-876) and “advantage of the combination” in assay [4]. Moreover, the “growth kinetics in the SRB assay format” value in assay [5] is reported as “advantage of the combination treatment”.
